From the supplement of paper PMC10307832 come the findings set out here.

Common to all, as to assay: relative viability (nuclei count vs DMSO), 5 days (fraction); higher = more cells survive
Compound in the assay “Tosedostat + Navitoclax”: CC(C)C[C@@H](C(=O)N[C@H](C(=O)OC1CCCC1)c1ccccc1)[C@H](O)C(=O)NO [Tosedostat] + CC1(C)CCC(c2ccc(Cl)cc2)=C(CN2CCN(c3ccc(C(=O)NS(=O)(=O)c4ccc(N[C@H](CCN5CCOCC5)CSc5ccccc5)c(S(=O)(=O)C(F)(F)F)c4)cc3)CC2)C1 [Navitoclax] (partner 0.5 µM)
The method, boiled down:
(§1)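 Relative viability divides the nuclei count in treated wells by that in vehicle wells. Lung cancer cell lines were seeded in 1536-well plates, dosed by pin tool the next day, and fixed and stained after 5 days in one step with final 0.05% Triton X-100, 1% formaldehyde and 1 ug/ml Hoechst. Dosing was a single drug or a fixed anchor-drug dose plus five library-drug doses (not always all listed) in √10 steps, and values are medians of duplicate plates imaged at 4×.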

Compound in the assay “Tosedostat + OSI-027”: CC(C)C[C@@H](C(=O)N[C@H](C(=O)OC1CCCC1)c1ccccc1)[C@H](O)C(=O)NO [Tosedostat] + COc1cccc2cc(-c3nc([C@H]4CC[C@H](C(=O)O)CC4)n4ncnc(N)c34)[nH]c12 [OSI-027] (partner 0.5 µM)
The essentials: as §1

Compound in assay [1]: CC1=NN=C(O1)C2=NN=C(C=C2)N3CCC(CC3)OC4=C(C=CC(=C4)F)Cl + C[C@]1(O)C[C@@H](c2nc(-c3ccc4ccc(-c5ccccc5)nc4c3)c3c(N)nccn32)C1 [Linsitinib] (partner 1 µM)
The method, boiled down:
as §1

Compound in assay [2]: CC1=NN=C(O1)C2=NN=C(C=C2)N3CCC(CC3)OC4=C(C=CC(=C4)F)Cl + Cc1cc(Nc2cc(N3CCN(C)CC3)nc(Sc3ccc(NC(=O)C4CC4)cc3)n2)n[nH]1 [Tozasertib] (partner 0.1 µM)
The method, boiled down: as §1

UMC-11: the relative viability is 0.343 with Tosedostat + Navitoclax (first compound 0.02 µM); 0.309 with Tosedostat + Navitoclax (first compound 0.06325 µM); 0.323 with Tosedostat + Navitoclax (first compound 0.2 µM); 0.322 with Tosedostat + Navitoclax (first compound 0.6325 µM); 0.287 with Tosedostat + Navitoclax (first compound 2 µM); 0.473 with Tosedostat + OSI-027 (first compound 0.02 µM). For the same cell line, the relative viability was 0.464 with Tosedostat + OSI-027 (first compound 0.06325 µM); 0.397 with Tosedostat + OSI-027 (first compound 0.2 µM); 0.449 with Tosedostat + OSI-027 (first compound 0.6325 µM); 0.473 with Tosedostat + OSI-027 (first compound 2 µM); 0.758 in assay [1] (first compound 0.253 µM); 0.732 in assay [1] (first compound 0.8 µM). Moreover, the relative viability in assay [1] (first compound 2.53 µM) was found to be 0.714; in assay [1] (first compound 8 µM) it was 0.744; in assay [2] (first compound 0.253 µM), 0.181; in assay [2] (first compound 0.8 µM), 0.184; in assay [2] (first compound 2.53 µM), 0.192; in assay [2] (first compound 8 µM), 0.169.
